The values below are quoted from earlier work in patent publication EP4778943A1, “LONG-ACTING PARATHYROID HORMONE RECEPTOR AGONIST FUSION PROTEIN AND USE THEREOF” (Shanghai Btd-Bio Technology Co., Ltd., priority 2023, dated 2025).

The test system of data set [1] is mice. As to conditions: continuous infusion 80 µg/kg BW/day for 2 weeks; cited from earlier work.
For data set [2] the following is noted: continuous administration once a day for 6 months; cited from earlier work.
In data set [3] the test system is TPTx (parathyroidectomy) rat model. The conditions noted are these: daily 1.2 nmol/kg (low dose) and 2.4 nmol/kg (high dose), after 4 weeks, versus model group; cited from earlier work.

Where no end group is shown, it is not given here.

Consider Abaloparatide, for which, in data set [1], the bone mineral density entry is given as “significant decrease”.

On to `CC[C@H](C)[C@H](NC(=O)[C@H](CCC(=O)O)NC(=O)[C@H](CO)NC(=O)[C@@H](NC(=O)[C@@H](N)CO)C(C)C)C(=O)N[C@@H](CCC(N)=O)C(=O)N[C@@H](CC(C)C)C(=O)N[C@@H](CCSC)C(=O)N[C@@H](Cc1c[nH]cn1)C(=O)N[C@@H](CC(N)=O)C(=O)N[C@@H](CC(C)C)C(=O)NCC(=O)N[C@@H](CCCCN)C(=O)N[C@@H](Cc1c[nH]cn1)C(=O)N[C@@H](CC(C)C)C(=O)N[C@@H](CC(N)=O)C(=O)N[C@@H](CO)C(=O)N[C@@H](CCSC)C(=O)N[C@@H](CCC(=O)O)C(=O)N[C@@H](CCCNC(=N)N)C(=O)N[C@H](C(=O)N[C@@H](CCC(=O)O)C(=O)N[C@@H](Cc1c[nH]c2ccccc12)C(=O)N[C@@H](CC(C)C)C(=O)N[C@@H](CCCNC(=N)N)C(=O)N[C@@H](CCCCN)C(=O)N[C@@H](CCCCN)C(=O)N[C@@H](CC(C)C)C(=O)N[C@@H](CCC(N)=O)C(=O)N[C@@H](CC(=O)O)C(=O)N[C@H](C(=O)N[C@@H](Cc1c[nH]cn1)C(=O)N[C@@H](CC(N)=O)C(=O)N[C@@H](Cc1ccccc1)C(=O)O)C(C)C)C(C)C` [teriparatide], for which the bone mineral density result in data set [1] is recorded as “significant decrease”. Further, in data set [2], the “bone mineral density of L2-L4, increase” value is “about 5%”.

Take “TransCon PTH: long-acting PTH, generic name palopegteriparatide, trade name Yorvipath (SVSEIQLMHNLGKHLNSMERVEWLRKKLQDVHNF; also: PEG carrier attached via prodrug linker, site not given here; UniProt P01270 32-65, looked up, fragment)”: in data set [3], the bone mineral density entry is “significantly decreased”.
